# Results: patent US9346795B2, “Substituted sulfonamides useful as antiapoptotic Bcl inhibitors” (Bristol-Myers Squibb Company, priority 2011, dated 2016)
# Legend:
# Bcl-xL = Bcl-xL (Homo sapiens (Human), UniProt Q07817); assay: Bcl-xL/Bim Fluorescence Resonance Energy Transfer Assay (FRET); type: binding
# In short: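 Biotin-Bcl-xL was incubated with Bim and compound at eleven concentrations for 60 min at room temperature. Streptavidin-terbium detection was then added for 30 min in the dark, and FRET was read. IC50 values were obtained by non-linear regression.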
# Bcl-2 = Bcl-2 (Homo sapiens (Human), UniProt P10415); assay: Bcl-2/Bim Fluorescence Polarization Assay (FPA); type: binding
# Sequence of Bcl-2 (P10415 whole entry): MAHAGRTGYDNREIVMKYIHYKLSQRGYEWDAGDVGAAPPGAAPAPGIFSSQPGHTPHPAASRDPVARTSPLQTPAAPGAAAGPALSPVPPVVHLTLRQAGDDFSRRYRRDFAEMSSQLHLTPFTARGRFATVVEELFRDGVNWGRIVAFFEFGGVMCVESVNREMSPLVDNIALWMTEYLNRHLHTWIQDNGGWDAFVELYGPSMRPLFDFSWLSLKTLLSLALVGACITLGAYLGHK
# Sequence of Bcl-xL (Q07817 whole entry): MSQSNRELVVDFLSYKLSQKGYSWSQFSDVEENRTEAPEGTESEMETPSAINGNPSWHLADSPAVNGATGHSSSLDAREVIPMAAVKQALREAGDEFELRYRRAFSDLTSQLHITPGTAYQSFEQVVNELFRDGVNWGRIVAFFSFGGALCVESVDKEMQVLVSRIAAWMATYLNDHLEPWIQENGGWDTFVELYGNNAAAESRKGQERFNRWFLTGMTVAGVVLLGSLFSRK
SMILES,IC50 (Bcl-xL) [nM],IC50 (Bcl-2) [nM]
"CCCCN(CCCC)C(=O)c1nn(-c2ccc(C(=O)NS(=O)(=O)c3ccc4cccc(Cl)c4c3)cc2C(=O)N2CCc3ccccc3C2)c(C)c1Cl [Example 5, N,N-dibutyl-4-chloro-1-(4-(8-chloronaphthalen-2-ylsulfonylcarbamoyl)-2-(1,2,3,4-tetrahydroisoquinoline-2-carbonyl)phenyl)-5-methyl-1H-pyrazole-3-carboxamide]",70,30
"CCCCc1c(-c2ccc(C(=O)NS(=O)(=O)c3ccc4cccc(Cl)c4c3)cc2C(=O)N2CCc3ccccc3C2)c(CO)nn1-c1ccc(Oc2cccc(Cl)c2)cc1 [Example 252, 4-(5-butyl-1-(4-(3-chlorophenoxy)phenyl)-3-(hydroxymethyl)-1H-pyrazol-4-yl)-N-(8-chloronaphthalen-2-ylsulfonyl)-3-(1,2,3,4-tetrahydroisoquinoline-2-carbonyl)benzamide]",10,6.37
"CCCCN(CCCC)C(=O)c1nn(-c2ccc(C(=O)NS(=O)(=O)c3ccc4c(c3)CCN4C(=O)N3CCOCC3)cc2C(=O)N2CCc3ccccc3C2)c(C)c1Cl [Example 74, N,N-dibutyl-4-chloro-5-methyl-1-(4-(1-(morpholine-4-carbonyl)indolin-5-ylsulfonylcarbamoyl)-2-(1,2,3,4-tetrahydroisoquinoline-2-carbonyl)phenyl)-1H-pyrazole-3-carboxamide]",60,340
"CCCCN(CCCC)C(=O)c1nn(-c2ccc(C(=O)NS(=O)(=O)c3ccc4cccc(C#N)c4c3)cc2C(=O)N2CCc3ccccc3C2)c(C)c1Cl [Example 8, N,N-dibutyl-4-chloro-1-(4-(8-cyanonaphthalen-2-ylsulfonylcarbamoyl)-2-(1,2,3,4-tetrahydroisoquinoline-2-carbonyl)phenyl)-5-methyl-1H-pyrazole-3-carboxamide]",20,920
"CCCCN(CCCC)C(=O)c1nn(-c2ccc(C(=O)NS(=O)(=O)c3ccc4ccccc4c3)cc2C(=O)N2Cc3ccccc3C[C@H]2CN2CCN(CCO)CC2)c(C)c1Cl [Example 115, N,N-dibutyl-4-chloro-1-(2-((S)-3-((4-(2-hydroxyethyl)piperazin-1-yl)methyl)-1,2,3,4-tetrahydroisoquinoline-2-carbonyl)-4-(naphthalen-2-ylsulfonylcarbamoyl)phenyl)-5-methyl-1H-pyrazole-3-carboxamide]",20,90
"CCCCc1c(-c2ccc(C(=O)NS(=O)(=O)c3ccc4ccccc4c3)cc2C(=O)N2CCc3ccccc3C2)c(CO)nn1-c1ccc(Oc2ccccc2)cc1 [Example 241, 4-(5-butyl-3-(hydroxymethyl)-1-(4-phenoxyphenyl)-1H-pyrazol-4-yl)-N-(naphthalen-2-ylsulfonyl)-3-(1,2,3,4-tetrahydroisoquinoline-2-carbonyl)benzamide]",30,130
"CCCCN(CCCC)c1nn(-c2ccc(C(=O)NS(=O)(=O)c3ccc4ccccc4c3)cc2C(=O)N2CCc3ccccc3C2)c(C)c1Cl [Example 191, 4-(4-Chloro-3-(dibutylamino)-5-methyl-1H-pyrazol-1-yl)-N-(naphthalen-2-ylsulfonyl)-3-(1,2,3,4-tetrahydroisoquinoline-2-carbonyl)benzamide]",690,260
"CCCCN(Cc1ccc(Cl)c(Cl)c1)c1ncc(Cl)c(-c2ccc(C(=O)NS(=O)(=O)c3ccc4cccc(Cl)c4c3)cc2C(=O)N2CCc3ccccc3C2)n1 [Example 322, 4-(2-(Butyl (3,4-dichlorobenzyl)amino)-5-chloropyrimidin-4-yl)-N-(8-chloronaphthalen-2-ylsulfonyl)-3-(1,2,3,4-tetrahydroisoquinoline-2-carbonyl)benzamide]",160,10
"CCCCN(CCCC)C(=O)c1nn(-c2ccc(C(=O)NS(=O)(=O)c3ccc4c(c3)c(Cl)cn4CC)cc2C(=O)N2CCc3ccccc3C2)c(C)c1Cl [Example 83, N,N-dibutyl-4-chloro-1-(4-(3-chloro-1-ethyl-1H-indol-5-ylsulfonylcarbamoyl)-2-(1,2,3,4-tetrahydroisoquinoline-2-carbonyl)phenyl)-5-methyl-1H-pyrazole-3-carboxamide]",40,20
"CCCCN(CCCC)C(=O)c1nn(-c2ccc(C(=O)NS(=O)(=O)c3ccc4ccc(OCCCN5CCOCC5)cc4c3)cc2C(=O)N2CCc3ccccc3C2)c(C)c1Cl [Example 34, N,N-dibutyl-4-chloro-5-methyl-1-(4-(7-(3-morpholinopropoxy)naphthalen-2-ylsulfonylcarbamoyl)-2-(1,2,3,4-tetrahydroisoquinoline-2-carbonyl)phenyl)-1H-pyrazole-3-carboxamide]",40,290
"CCCCN(CCCC)C(=O)c1nn(-c2ccc(C(=O)NS(=O)(=O)c3ccc4cccc(OCCN5CCOCC5)c4c3)cc2C(=O)N2CCc3ccccc3C2)c(C)c1Cl [Example 27, N,N-dibutyl-4-chloro-5-methyl-1-(4-(8-(2-morpholinoethoxy)naphthalen-2-ylsulfonylcarbamoyl)-2-(1,2,3,4-tetrahydroisoquinoline-2-carbonyl)phenyl)-1H-pyrazole-3-carboxamide]",40,110
"CCCCN(CCCC)C(=O)c1nn(-c2ccc(C(=O)NS(=O)(=O)c3ccc4ccc(OCc5ccccc5)cc4c3)cc2C(=O)N2CCc3ccccc3C2)c(C)c1Cl [Example 18, 1-(4-(7-(benzyloxy)naphthalen-2-ylsulfonylcarbamoyl)-2-(1,2,3,4-tetrahydroisoquinoline-2-carbonyl)phenyl)-N,N-dibutyl-4-chloro-5-methyl-1H-pyrazole-3-carboxamide]",30,10
"CCCCN(CCCC)C(=O)c1nn(-c2ccc(C(=O)NS(=O)(=O)c3ccc4c(c3)CCN4C(=O)Cc3ccc(Cl)c(Cl)c3)cc2C(=O)N2CCc3ccccc3C2)c(C)c1Cl [Example 64, N,N-dibutyl-4-chloro-1-(4-(1-(2-(3,4-dichlorophenyl)acetyl)indolin-5-ylsulfonylcarbamoyl)-2-(1,2,3,4-tetrahydroisoquinoline-2-carbonyl)phenyl)-5-methyl-1H-pyrazole-3-carboxamide]",2450,200
"CCCCN(C(=O)c1nn(-c2ccc(C(=O)NS(=O)(=O)c3ccc4ccccc4c3)cc2C(=O)N2CCc3ccccc3C2)c(C)c1Cl)c1ccc2c(c1)OCCO2 [Example 149, N-butyl-4-chloro-N-(2,3-dihydrobenzo[b][1,4]dioxin-6-yl)-5-methyl-1-(4-(naphthalen-2-ylsulfonylcarbamoyl)-2-(1,2,3,4-tetrahydroisoquinoline-2-carbonyl)phenyl)-1H-pyrazole-3-carboxamide]",30,70
"CCCCN(CCCC)C(=O)c1nn(-c2ccc(C(=O)NS(=O)(=O)c3ccc4ccc(Cl)cc4c3)cc2C(=O)N2CCc3ccccc3C2)c(C)c1Cl [Example 10, N,N-dibutyl-4-chloro-1-(4-(7-chloronaphthalen-2-ylsulfonylcarbamoyl)-2-(1,2,3,4-tetrahydroisoquinoline-2-carbonyl)phenyl)-5-methyl-1H-pyrazole-3-carboxamide]",90,90
"CCCCN(CCCC)C(=O)c1nn(-c2ccc(C(=O)NS(=O)(=O)c3ccc4ccccc4c3)cc2C(=O)N2CCc3ccc(C(=O)O)cc3C2)c(C)c1Cl [Example 100, 2-(2-(4-Chloro-3-(dibutylcarbamoyl)-5-methyl-1H-pyrazol-1-yl)-5-(naphthalen-2-ylsulfonylcarbamoyl)benzoyl)-1,2,3,4-tetrahydroisoquinoline-7-carboxylic acid]",3510,4710
